According to US11939398B2, “Modified peptides for use in treating neurodegenerative disorders” (Neuro-Bio Ltd, priority 2016, dated 2024):
Entries after “also recorded” stand apart in the source; their conditions may differ. Where a SMILES comes first, the peptide text is derived from it. [ ]: non-standard residue; d: D form. Phe(4-NH2) = Nc1ccc(C[C@H](N)C(=O)O)cc1; 2Nal = N[C@@H](Cc1ccc2ccccc2c1)C(=O)O

Assays:
[1] = tested on: rat basal forebrain slices; test: voltage-sensitive dye imaging (VSDI) on brain slices, Example 5; type: cell-based
Procedure: Male Wistar rats (14 days old) were anaesthetised using isoflurane (˜15 ml, 100% w/w). Isoflurane was applied to the cotton bed at the bottom of an anaesthetic chamber (glass box 20×15×15 cm) where rats were then placed for approximately 45 s until complete anaesthesia was reached. The hind paw of each anaesthetised rat was pinched to check for the appropriate depth of anaesthesia. Upon confirmation of anaesthesia, rats were quickly decapitated, with the brain being quickly removed and immersed in ice cold oxygenated ‘slicing’ artificial cerebrospinal fluid (aCSF in mmol: 120 NaCl, 5 KCL, 20 NaHCO3, 2.4 CaCl2 2 MgSO4, 1.2 KH2PO4, 10 glucose, 6.7 HEPES salt and 3.3 HEPES acid; pH=7.1). Coronal slices (400 μm thick) were then taken from a block of brain containing the basal forebrain, namely the MS-dBB complex (between +9.20 and +9.48 mm Interaural and +0.48 and +0.2 mm Bregma, FIG. 4A) and the somatosensory barrel field cortex (SiBF, between +8.08 and +7.20 mm Interaural and −0.92 mm and −1.80 mm Bregma) (Paxinos and Watson, 1998) using a Vibratome (Leica VTi000S).
Slices were then transferred to a bubbler pot containing oxygenated aCSF at room temperature (recording aCSF in mmol: 124 NaCl, 5 KCL, 20 NaHCO3, 2.4 CaCl2 2 MgSO4, 1.3 KH2PO4, 10 glucose; pH=7.4) which was identical to that used in VSDI (voltage sensitive dye imaging) recording. Slices were then left for approximately 1-1.5 hours before preparing them for VSD staining.
Slices were placed in a dark, high humidity chamber filled with aCSF bubbled with 95% O2, 5% CO2. Once there, the dye solution (4% 0.2 mM styryl dye pyridinium 4-[2-[6-(dibutylamino)-2-napthalenyl]-ethenyl]-1-(3-sulfopropyl)hydroxide (Di-4-NEPPS), Invitrogen, Paisley, UK in 48% aCSF, 48% foetal bovine serum, 3.5% DMSO and 0.4% cremophore EL) (Tominaga et al., 2000) was applied to the slices for 20-25 minutes before being transferred back to a bubbler pot containing oxygenated aCSF kept at room temperature for 30 minutes.
When starting the VSDI recordings, slices were placed in the recording bath on a small piece of filter paper to allow the flow of oxygenated aCSF on the underside of the slice and in order to keep it alive. The slice was then weighed down by a home-made plastic grid that was placed on top of the slice. […] For the acquisition of VSD data, 2 dimensional images, equivalent to 88×60 pixels, were recorded using the MiCamo2 High Resolution camera (Brain Vision, Japan) with BV_Analyze imaging software. […] Light was generated using an Osram halogen xenophot 64634 HLX EFR Display/Optic lamp and was filtered to emit green (530±10 nm) light using a MHF-G150LR (Moritex Corporation) coupled to the MiCamo2 High resolution imaging system and filtered the emitted fluorescence through a >590 nm high pass filter. […]

[2] = stability / degradation in rat blood; type: in vitro ADME; settings: rat blood diluted with PBS
Procedure: (§1) Test compounds were spiked at 10 μg/ml into either PBS or blood (Male Wistar rat or Human) diluted with PBS, and a series of samples taken according to the following scheme:
(§2) Procaine, a compound known to be unstable in blood, was included as a positive control (ran with 5-fold diluted blood only). The sampling procedure was to add an aliquot to ice-cold acetonitrile, centrifuge, and store the supernatant on dry ice until analysis. Analysis by UHPLC-TOF mass spectrometry using electrospray ionisation was performed on the same day as the incubations were performed.

[3] = stability / degradation in human blood; type: in vitro ADME; settings: human blood diluted with PBS
Procedure: as §1, §2

[4] = tested on: PC12 cells; test: AChE activity assay (Ellman reagent) in PC12 cells treated with T30; type: cell-based; settings: combined with T30 (1 μM)
Procedure: AChE activity was measured using the Ellman reagent that measures the presence of thiol groups as a result of AChE activity. In the case of the G4 experiment, AChE (G4) activity was tested alone and also together with either NBP14 or Tri peptides. PC12 cells were plated the day before the experiment as for the cell viability assay. Cells were treated with T30 (1 μM) alone or combined with NBP14 or Tri peptide (0.5 μM). After treatment, supernatant (perfusate) of each treatment was collected and 25 μL from each condition were added to a new flat bottomed 96 well plate followed by the addition of 175 μl of Ellman reagent (Solution A: KH2PO4 139 mM and K2HPO4 79.66 mM, pH 7.0; solution B (substrate): Acetylthiocholine Iodide 11.5 mM; Solution C (Reagent): 5,5′-dithiobis(2-nitrobenzoic acid) 8 mM and NaHCO3 15 mM). The Ellman reagent was prepared as a mixture of the 3 solutions in a ratio 33(A):3(B):4(C). Absorbance measurements were taken for an interval of 60 minutes across experiments at 405 nm in a Vmax plate reader (Molecular devices, Wokingham, UK).
In each of the different cell techniques, the statistics analysis was performed with the average of the percentage values of 3 or more experiments. […]

[5] = tested on: PC12 cells; test: Calcium fluorometry (Fluo-8, PNU282987-induced calcium increase) in PC12 cells; type: cell-based; settings: in conjunction with T30, PC12 cells
Procedure: PC12 cells were plated in 200 μl of Dulbecco's Modified Eagle's medium (DMEM) plus 2 mM of L-glutamine medium the day before the experiment in 96 well plates. On the day of the experiment, the Fluo-8 solution (Abcam) was prepared as described by the provider by adding 20 μl of Fluo-8 in the assay buffer that contains 9 ml of Hank's Balanced Salt Solution (HBSS) and 1 ml of pluronic F127 Plus. Subsequently, 100 μl of growth medium was removed and 100 μl of Fluo-8 solution were added. Treatments with T30 in conjunction with NBP14 or Tri peptides were added and incubated for 30 minutes in the incubator and 30 minutes room temperature. After 1 h, the plate was placed in the fluorescence plate reader (Fluostar, Optima, BMG Labtech, Ortenberg, Germany). Before reading the fluorescence, PNU282987 1 μM, an alpha7 specific agonist of the nicotinic receptors, was prepared and placed in the Fluostar injector. For each well, the reading was formed by a basal fluorescence reading followed by PNU282987 injection that induced an increase of calcium via nicotinic receptors.
In each of the different cell techniques, the statistics analysis was performed with the average of the percentage values of 3 or more experiments. Comparisons between multiple treatment groups and the same control were performed by one-way analysis of variance (ANOVA) and Tukey's post-hoc tests using GraphPAD Instat (GraphPAD software, San Diego, California). Statistical significance was taken at a p value<0.05.

[6] = target: α7 nicotinic-receptor (Homo sapiens, UniProt P36544); settings: cited from earlier work
α7 nicotinic-receptor, sequence (P36544 23-502): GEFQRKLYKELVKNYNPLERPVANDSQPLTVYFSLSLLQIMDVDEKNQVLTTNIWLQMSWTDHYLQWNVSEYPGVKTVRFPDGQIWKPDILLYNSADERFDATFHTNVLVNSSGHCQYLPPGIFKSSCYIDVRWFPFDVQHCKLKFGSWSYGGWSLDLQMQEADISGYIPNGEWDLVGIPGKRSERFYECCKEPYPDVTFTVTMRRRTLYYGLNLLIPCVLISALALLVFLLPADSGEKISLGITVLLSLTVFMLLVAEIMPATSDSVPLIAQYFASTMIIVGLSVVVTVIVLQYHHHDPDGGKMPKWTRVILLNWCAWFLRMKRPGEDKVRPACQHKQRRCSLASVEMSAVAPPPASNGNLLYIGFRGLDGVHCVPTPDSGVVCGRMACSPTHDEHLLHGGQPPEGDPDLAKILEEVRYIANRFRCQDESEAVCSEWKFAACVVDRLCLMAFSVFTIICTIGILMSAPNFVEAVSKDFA

In the case of `CC(=O)N[C@@H](Cc1ccc2ccccc2c1)C(=O)N[C@@H](Cc1ccc(N)cc1)C(=O)N[C@@H](Cc1c[nH]c2ccccc12)C(N)=O` [Tri02, 4-((S)-2((S)-2-acetamido-3-(naphthalene-2-yl)propanamido)-3-(((S)-1-amino-3-(1H-indol-3-yl)-1-oxopropan-2-yl)amino)-3-oxopropyl)benzenaminium] (Ac-[2Nal]-[Phe(4-NH2)]-Trp-NH2), the “blocking of T30-induced deviations from baseline (VSDI)” value ([1]; 4 μM co-perfused with T30 (2 uM)) is reported as “not found to protect against T30-induced deviations from baseline; also recorded: some efficacy in blocking those T30-induced deviation”, the “change in magnitude (summed fluorescence) of evoked responses, compound alone” value ([1]; 4 μM in perfusate, no T30) is reported as “recapitulates results seen with application of 4 μM NBP14; also recorded: small alterations” and the stability in blood ([2]; 10 μg/ml, up to 60 min) is reported as “some instability”. The degradants detected ([2]; UHPLC-TOF MS) was “a variety of degradants were detected”, the stability in blood ([3]; 10 μg/ml, up to 60 min) was “some instability” and the degradants detected ([3]; UHPLC-TOF MS) was “a variety of degradants were detected”. For the same compound, the “protection against T30-induced AChE activity” value [4] was “protects against the toxic effects of T30” and the “protection against T30-induced calcium influx” value [5] was “protects against the toxic effects of T30”.

For `COc1ccc2c3c1O[C@H]1C[C@@H](O)C=C[C@@]31CCN(C)C2` [galanthamine], the “affinity for the α7 nicotinic-receptor” value [6] is given as 10 µM.
